US12303484B2, “Method of treating cancer” (University of Louisiana at Lafayette, priority 2019, dated 2025)
pEC50, pIC50: −log10 of the molar value. Like-named read-outs stand apart in the source and are kept apart here.

How the values were obtained:
[1] = tested on: NCI-H522 Lung Cancer cell line; assay: MTT cell proliferation / cytotoxicity assay, NCI-H522; format: cell-based, human; conditions: for pEC50: MTT, read-out: Effective Dose 50 (ED50); for ED50 (in words): NCI-H522, MTT assay
Experimental: (§1) Examples measuring the effectiveness of mer-[RuCl3(DMSO)(dmpyz)2 in treating two lines of cancer cells is presented herein. Lung Cancer Cell lines NCI-H522 and NCI-H23 from ATCC were grown in RPMI (growth medium) supplemented with 10% heat inactivated fetal bovine serum (FBS) along with penicillin and streptomycin. All cells were grown at humidified, carbon dioxide enriched atmosphere (+37° C. with 5% CO2).
(§2) NCI-H522 cells were seeded at 50,000 cells/well and NCI-H23 at 30,000cells/well in a 96-well microtiter plate in RPMI with 10% FBS. Cells were incubated at humidified atmosphere (+37° C. with 5% CO2) for overnight attachment. A mer-[RuCl3(DMSO)(dmpyz)2 drug along with the positive control drug Doxorubicin were used in following concentrations (100 μM, 33 μM, 11 μM, 3.7 μM, 1.2 μM, 0.4 μM per well of cells) and added in triplicates and incubated for 3 time durations (24 hrs,48 hrs,72 hrs) at humidified atmosphere (37° C. with 5% CO2). Thereafter the cells were treated with 10 μl (final concentration 0.5 mg/ml) 3-(4,5-dimethylthiazol-2-yl)- 2,5-diphenyltetrazolium bromide (MTT, see Cell Proliferation Kit I MTT Roche: Cat No: 11465007001). The microplate were incubated for 4 hours in a humidified atmosphere (+37° C., 5% CO2). Four hours later 100 μl of solubilization solution (from Roche MTT kit) was added into each well. The plate were allowed to stand overnight in the incubator in a humidified atmosphere (+37° C., 5% CO2). The complete solubilization of the purple formazan crystals was check for and measure the absorbance of the samples using a microplate (ELISA) reader. The wavelength was measure for absorbance of the formazan product at 562 nm the reference wavelength used was 630 nm. Percentage viable cells were calculated as below. % viable cells=(ab of sample-ab of blank/ab control-ab blank) X100 % cytotoxicity or % inhibition=100−% viable cells
(§3) The Effective Dose 50 (ED50) was extrapolated from the dose-response graph. The drug concentration that reduced the viability of the cells by 50% (ED50) was determined by plotting data points over a concentration range and calculating values using PRISM program.
(§4) The MTT assay is used to measure cellular metabolic activity as an indicator of cell viability, proliferation and cytotoxicity. This colorimetric assay is based on the reduction of a yellow tetrazolium salt (3-(4,5-dimethylthiazol-2-yl)-2,5-diphenyltetrazolium bromide or MTT) to purple formazan crystals by metabolically active cells. Viable cells produce enzymes that convert yellow MTT to insoluble purple formazan. The more viable cells present in a sample, the more intense the purple color. This test is widely used in the in vitro evaluation of cytotoxic potency of drugs. In the present study we applied the MTT assay to evaluate the potency of mer-[RuC3(DMSO)(dmpyz)2 anti-cancer drug in various human lung cancer cell lines.

[2] = tested on: NCI-H23 Lung Cancer cell line; assay: MTT cell proliferation / cytotoxicity assay, NCI-H23; format: cell-based, human; conditions: for pEC50: MTT, read-out: Effective Dose 50 (ED50); for ED50 (in words): NCI-H23, MTT assay
Experimental: as §1, §2, §3, §4

[3] = tested on: H522 cell lines (NSCLC); assay: Ruthenium complex screening against cancer subtypes (FIG. 3); format: cell-based
Source text: Still, preliminary tests show promise that dosage of RuCl3(DMSO)(dmPyz)2 is effective against NSCLC subtypes. FIG. 3 is a table showing the results of Ruthenium complex screening conducted to test the efficacy of the current Ruthenium (III) complexes to various cancer subtypes.

For mer-[RuCl3(DMSO)(dmpyz)2, the cytotoxic response ([1]; H522 cell lines, 33 μM concentration) was “highly toxic”, the pEC50 ([1]; NCI-H522, 24 hrs treatment) was 4.09 and the pEC50 ([1]; NCI-H522, 48 hrs treatment) was 4.93. The pEC50 ([1]; NCI-H522, 72 hrs treatment) was 4.90, the “ED50 (in words)” value [1] was “modest micromolar” and the cell viability ([1]; NCI-H522, drug concentration 33 μM or more) was “reduces to zero”. The cytotoxic response ([2]; H23 cell lines, 100 μM concentration) was “highly toxic”, the pEC50 ([2]; NCI-H23, 24 hrs treatment) was 4.09 and the pEC50 ([2]; NCI-H23, 48 hrs treatment) was 4.11. The pEC50 ([2]; NCI-H23, 72 hrs treatment) was 4.23, the “ED50 (in words)” value [2] was “modest micromolar” and the cell viability ([2]; NCI-H23, drug concentration 100 μM) was “reduces to zero”. The pIC50 ([3]; suggested from 97% inhibition at 10 micromole) was greater than 5.00 and the “inhibition of NSCLC” value ([3]; treatment of 10 micromole (M) purified, preliminary tests) was 97%.

With `COc1cccc2c1C(=O)c1c(O)c3c(c(O)c1C2=O)C[C@@](O)(C(=O)CO)C[C@@H]3O[C@H]1C[C@H](N)[C@H](O)[C@H](C)O1` [doxorubicin, Doxorubicin, reference compound] the “ED50 (in words)” value [1] was “comparable to published data” and the “ED50 (in words)” value [2] was “comparable to published data”.
